# Laboratory results published in patent publication US11053204B2, “Pyrimidinyloxy benzene derivatives as herbicides” (FMC Corporation, priority 2015, dated 2021).
# Key:
# Assay type in all cases: in vivo
# [1] = tested on: velvetleaf (Abutilon theophrasti); assay: Test C preemergence, plant response rating; conditions: Abutilon theophrasti, pre-emergence, Preemergence, scale 0 to 100
# How it was run: (§1)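 After sowing in loam–sand blend or silt loam, pots were sprayed preemergence; separately grown 1- to 4-leaf plants were sprayed postemergence. Following 13 to 15 d under greenhouse conditions, injury was rated visually on a 0 to 100 scale.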
# [2] = tested on: waterhemp (common waterhemp, Amaranthus rudis); assay: Test C preemergence, plant response rating; conditions: Amaranthus tuberculatus, pre-emergence, Preemergence
# How it was run: as §1
# [3] = tested on: wheat (winter wheat, Triticum aestivum); assay: Test C preemergence, plant response rating; conditions: Triticum aestivum, pre-emergence, Preemergence
# How it was run: as §1
# [4] = tested on: corn (Zea mays); assay: Test C postemergence, plant response rating; conditions: Zea mays, post-emergence
# From the text: (§2) Seeds of plant species selected from blackgrass (Alopecurus myosuroides), ryegrass, Italian (Italian ryegrass, Lolium multiflorum), wheat (winter wheat, Triticum aestivum), galium (catchweed bedstraw, Galium aparine), corn (Zea mays), crabgrass, large (large crabgrass, Digitaria sanguinalis), foxtail, giant (giant foxtail, Setaria faberii), johnsongrass (Sorghum halepense), lambsquarters (Chenopodium album), morningglory (Ipomoea coccinea), nutsedge, yellow (yellow nutsedge, Cyperus esculentus), pigweed (Amaranthus retroflexus), ragweed (common ragweed, Ambrosia elatior), soybean (Glycine max), barnyardgrass (Echinochloa crus-galli), oilseed rape (Brassica napus), pigweed, palmer (palmer pigweed, Amaranthus palmeri), waterhemp (common waterhemp, Amaranthus rudis), velvetleaf (Abutilon theophrasti), kochia (Kochia scoparia), surinam grass (Brachiaria decumbens), nightshade (eastern black nightshade, Solanum ptycanthum), wild poinsettia (Euphorbia heterophylla), windgrass (Apera spica-venti), and oat, wild (wild oat Avena fatua), were planted into a blend of loam soil and sand or a silt loam soil and treated preemergence with test chemicals formulated in a non-phytotoxic solvent mixture which included a surfactant.
# (§3) At the same time, plants selected from these crop and weed species and also chickweed (common chickweed, Stellaria media), buckwheat, wild (wild buckwheat, Polygonum convolvulus), wild mustard (Sinapis arvensis), field poppy (Papaver rhoeas), field violet (Viola arvensis), geranium, cutleaf (cutleaf geranium, Geranium dissectum), Canada thistle (Cirsium arvense), and speedwell (bird's-eye speedwell, Veronica persica), were planted in pots containing Sunshine Redi-Earth® planting medium comprising spaghnum peat moss, vermiculite, starter nutrients and dolomitic limestone and treated with postemergence applications of test chemicals formulated in the same manner. Plants ranged in height from 2 to 18 cm (1- to 4-leaf stage) for postemergence treatments. Treated plants and controls were maintained in a greenhouse for 13 to 15 d, after which time all species were compared to controls and visually evaluated. Plant response ratings, summarized in Table C, are based on a scale of 0 to 100 where 0 is no effect and 100 is complete control. A dash (-) response means no test result.
# [5] = tested on: crabgrass, large (large crabgrass, Digitaria sanguinalis); assay: Test C postemergence, plant response rating; conditions: Digitaria sanguinalis, post-emergence
# From the text: as §2, §3
# [6] = tested on: foxtail, giant (giant foxtail, Setaria faberii); assay: Test C postemergence, plant response rating; conditions: Setaria faberi, post-emergence
# From the text: as §2, §3
# [7] = tested on: galium (catchweed bedstraw, Galium aparine); assay: Test C postemergence, plant response rating; conditions: Galium, post-emergence
# From the text: as §2, §3
# [8] = tested on: kochia (Kochia scoparia); assay: Test C postemergence, plant response rating; conditions: Bassia scoparia, post-emergence
# From the text: as §2, §3
# [9] = tested on: oilseed rape (Brassica napus); assay: Test C postemergence, plant response rating; conditions: Brassica napus, post-emergence
# From the text: as §2, §3
# [10] = tested on: soybean (Glycine max); assay: Test C postemergence, plant response rating; conditions: Glycine max, post-emergence
# From the text: as §2, §3
# [11] = tested on: waterhemp (common waterhemp, Amaranthus rudis); assay: Test C postemergence, plant response rating; conditions: for Plant response rating, Waterhemp: scale 0 to 100; for Waterhemp plant response rating: scale 0 to 100 (0 no effect, 100 complete control)
# From the text: as §2, §3
# [12] = 62 g ai/ha, scale 0 to 100 (0 no effect, 100 complete control)
# [13] = 125 g ai/ha, scale 0 to 100 (0 no effect, 100 complete control)
smiles,measurement,setting,value
"O=C(OCCCC(F)(F)F)c1c(Br)cccc1Oc1ncc(Cl)cn1 [Compound 20, 4,4,4-trifluorobutyl 2-bromo-6-[(5-chloro-2-pyrimidinyl)oxy]benzoate]",pest or weed control at 31 g/ha,[1]; 31 g ai/ha,0%
same,pest or weed control at 62 g/ha,[1]; 62 g ai/ha,5%
same,pest or weed control at 125 g/ha,"[2]; 125 g ai/ha, scale of 0 to 100",98%
same,pest or weed control at 16 g/ha,"[2]; 16 g ai/ha, scale 0 to 100",30%
same,pest or weed control at 31 g/ha,"[2]; 31 g ai/ha, scale 0 to 100",85%
same,pest or weed control at 62 g/ha,"[2]; 62 g ai/ha, scale 0 to 100",100%
same,plant injury at 125 g/ha,"[3]; 125 g ai/ha, scale of 0 to 100",5%
same,plant injury at 16 g/ha,"[3]; 16 g ai/ha, scale 0 to 100",0%
same,plant injury at 31 g/ha,"[3]; 31 g ai/ha, scale 0 to 100",0%
same,plant injury at 62 g/ha,"[3]; 62 g ai/ha, scale 0 to 100",0%
same,"Corn plant response rating (crop injury, 0 = no effect, 100 = complete kill) at 16 g/ha","[4]; 16 g ai/ha, scale 0 to 100",5%
same,"Corn plant response rating (crop injury, 0 = no effect, 100 = complete kill) at 31 g/ha","[4]; 31 g ai/ha, scale 0 to 100",10%
same,plant injury at 62 g/ha,[4]; [12],10%
same,plant injury at 125 g/ha,[4]; [13],20%
same,pest or weed control at 16 g/ha,"[5]; 16 g ai/ha, scale 0 to 100",10%
same,pest or weed control at 31 g/ha,"[5]; 31 g ai/ha, scale 0 to 100",10%
same,pest or weed control at 62 g/ha,[5]; [12],15%
same,pest or weed control at 125 g/ha,[5]; [13],15%
same,pest or weed control at 16 g/ha,"[6]; 16 g ai/ha, scale 0 to 100",10%
same,pest or weed control at 31 g/ha,"[6]; 31 g ai/ha, scale 0 to 100",10%
same,pest or weed control at 62 g/ha,[6]; [12],10%
same,pest or weed control at 125 g/ha,[6]; [13],25%
same,pest or weed control at 16 g/ha,"[7]; 16 g ai/ha, scale 0 to 100",70%
same,pest or weed control at 31 g/ha,"[7]; 31 g ai/ha, scale 0 to 100",60%
same,pest or weed control at 62 g/ha,[7]; [12],80%
same,pest or weed control at 125 g/ha,[7]; [13],98%
same,pest or weed control at 16 g/ha,"[8]; 16 g ai/ha, scale 0 to 100",95%
same,pest or weed control at 31 g/ha,"[8]; 31 g ai/ha, scale 0 to 100",95%
same,pest or weed control at 62 g/ha,[8]; [12],100%
same,pest or weed control at 125 g/ha,[8]; [13],100%
same,plant injury at 16 g/ha,"[9]; 16 g ai/ha, scale 0 to 100",50%
same,plant injury at 31 g/ha,"[9]; 31 g ai/ha, scale 0 to 100",50%
same,plant injury at 62 g/ha,[9]; [12],50%
same,plant injury at 125 g/ha,[9]; [13],60%
same,plant injury at 16 g/ha,"[10]; 16 g ai/ha, scale 0 to 100",25%
same,plant injury at 31 g/ha,"[10]; 31 g ai/ha, scale 0 to 100",65%
same,plant injury at 62 g/ha,[10]; [12],55%
same,plant injury at 125 g/ha,[10]; [13],60%
same,"Plant response rating, Waterhemp",[11]; 16 g ai/ha,75
same,"Plant response rating, Waterhemp",[11]; 31 g ai/ha,95
same,Waterhemp plant response rating,[11]; 62 g ai/ha,90
same,Waterhemp plant response rating,[11]; 125 g ai/ha,98
